Columns and labels:
interferon = settings: rodents and cats; administered orally or intraperitoneally; cited from earlier work
renal papillae of rats = settings: cited from earlier work
[1] = test system: vesicular stomatitis virus (VSV); format: cell-based

Compound | Interferon induction (interferon) | Toxicity upon chronic administration (renal papillae of rats) | EC50 vesicular stomatitis virus [1]
Cc1nc(N)nc(O)c1Br [Compound 6, 2-amino-5-bromo-6-methyl-4(3H)-pyrimidinone] | reported to induce interferon | toxicity-limiting crystal deposition in the renal papillae of rats | 
CCCCCc1nc(N)[nH]c(=O)c1Br [Compound 14c, 2-Amino-5-bromo-6-pentylpyrimidin-4(3H)-one] |  |  | anti-VSV activity was not observed in HEL cell cultures
